Experimental data: patent publication US10111847B2, “Compounds and methods for modulating vascular injury” (The Regents of the University of California, priority 2012, dated 2018)

How the values were obtained:
human sv-VSMCs [1] = assay: PDGF-BB induced VSMC cell-shape measurement (phalloidin); format: cell-based; conditions: 100 nM, 30 min; PDGF-BB 50 ng/ml 1 hr
Protocol: Cells were cultured in 8-well chamber slides (3,000 cells/well) and pretreated with MaR-1 or vehicle (0.1% ethanol) for 30 min followed by the addition of PDGF-BB (50 ng/ml) for 1 h. Cells were washed twice in phosphate-buffered saline (PBS), permeabilized with 0.1% Triton-X, and then fixed in 4% formaldehyde, labeled with Alexa Fluor 568 phalloidin (Invitrogen) and DAPI, and then mounted on glass slides. Cell area and length/width ratio were determined by outlining the cell dimensions and computing 2-dimensional area using GIMP image analysis software (GIMP, freeware; www.gimp.org). For each condition, dimensions were measured from 30 randomly selected cells, and all treatment conditions were performed in triplicate.
Human sv-VSMCs cultured in chamber slides were treated with 7S-Maresin-1 at 100 nM or vehicle for 30 min, followed by PDGF-BB, 50 ng/ml for 1 hr. Cells were then fixed, permeabilized and stained with phalloidin (Life technologies).
FIGS. 21A-21E. (A) Vehicle Control. (B) PDGF-BB, 50 ng/ml. (C) 7S-Maresin-1, 100 nm+PDGF-BB, 50 ng/ml. (D) 7S-Maresin-1, 100 nm+pertussis toxin, 10 ng/ml+PDGF-BB, 50 ng/ml. (E) Graphical summary of N=4 per group. P≤0.01, One-way ANOVA with Dunnett's post hoc test. *P<0.05 compared to PDGF-BB (50 ng/ml). †: P≤0.05 compared to PDGF-BB alone, unpaired t-test. ‡: P≤0.05 compared to PDGF-BB+7S-Maresin-1, unpaired t-test. Error bars: SEM.

inflammatory mediators = assay: Inflammation cytokine array of conditioned medium from sv-ECs; format: cell-based, human; conditions: 100 nm, 30 min; TNF α 1 ng/ml 18 hrs
Protocol: Media was collected and incubated for 2 hr with the inflammation array membranes. The cells were harvested for protein estimation for normalization purposes. The membranes were washed following instruction protocol supplied by the manufacturer (Raybiotech Inc., Norcross, Ga.) and probed with biotinylated anti-cytokine antibody cocktail (provided by the manufacturer) for 2 hrs. The membranes were again washed with appropriate buffers provided by the manufacturer and incubated for 2 hrs with HRP-conjugated streptavidin, followed by chemiluminescence based detection of signal by Chemidoc (Biorad Inc.)
Inflammatory signals are amplified by autocrine and paracrine pathways that include the elaboration of pro-inflammatory mediators into the local extracellular milieu. Cells grown in 6 cm dish were serum starved for 24 hrs. The cells were then pre-treated with 100 nm 7S-Maresin-1 for 30 min followed by 18 hrs of TNF α (1 ng/ml). Cell culture media was collected and incubated with human inflammation cytokine array membranes (AAH-INF-3-4, Raybiotech Inc.), coated with antibodies (in duplicate) recognizing 40 different inflammatory mediators.
FIGS. 19A-19C. (A, B) Representative membrane images from a set of three pairs. (C) Densitometric quantitation of each of the attenuated inflammatory mediators in three independent experiments was performed and is represented in the bar graph. […]

IKKα/β subunit [2] = assay: TNFα induced phosphorylation of IKKα/β in sv-ECs, western blot; format: cell-based, human; conditions: 100 nm, 30 min; TNFα 1 ng/ml 15 min
Protocol: (§1) Mar-1. VSMCs and ECs were lysed in buffer (20 mM Tris-Hcl, 137 mM NaCl, 10% Glycerol, 1% NP-40) with protease and phosphatase inhibitors (Halt inhibitor capsules, Pierce, Inc) by sonication on ice. The lysates were instantly snap frozen in liquid nitrogen and thawed back later for western blotting. After centrifugation (15,000 g for 20 minutes), the whole cell extract (supernatant) was collected and was heated at 100° C. in Laemlli buffer for 6 minutes. Lysates were run on Mini-Protean TGX gels
(§2) (Biorad) and transferred on PVDF membranes which were probed with appropriate primary and secondary antibodies and visualized for quantitation using q-dot nanocrystals (Life Technologies, Inc).
(§3) Cells were pretreated with 100 nm of 7S/7R-Maresin-1 for 30 min, followed by TNFα (10 ng/ml for VSMC and 1 ng/ml for EC) for 15 min. Whole cell lysates were collected and probed for pan and phospho IKK (Cell Signaling Inc.).
(§4) FIG. 18. IKK-phospho and total IKK western blotting image is representative of three independent experiments. Bar graph represents net quantitative densitometry analysis. N=3. P≤0.05, One-way ANOVA with Dunnett's post hoc test. *: P≤0.05 compared to control, unpaired t-test. †: P≤0.05 compared to TNFα, unpaired t-test. Error bars: SEM.

human sv-VSMCs [3] = assay: PDGF-BB induced transwell migration of sv-VSMCs (Maresin-1); format: cell-based; conditions: 1-100 nM; PDGF-BB 50 ng/ml; 15 hr
Protocol: MaR-1. VSMCs were serum starved for 1-2 days, then trypsinized and seeded in 8-μm-pore transwell inserts (Corning Glass Works, Corning, N.Y.) at a concentration of 30,000 cells per well. Cells were allowed to attach for 2 hr, then pretreated with Maresin-1 (1-100 nM) or vehicle (0.1% ethanol) control for 30 min before the addition of PDGF-BB (50 ng/ml; Sigma-Aldrich, St. Louis, Mo., USA) to the lower wells. 7S-Maresin-1 was added to both upper and lower wells for the full duration of chemotaxis experiment (15 hr). The membranes were fixed with methanol and cut out, mounted with DAPI, and migrated cells were counted under fluorescence microscope. Ten images per well were taken randomly under a 10× magnification and number of cells were counted in all the images to calculate mean for a given well.
VSMCs were pre-treated with vehicle or 7S-Maresin-1 for 30 min in a transwell insert before adding […] (50 ng/ml) to the outer chamber. Migrated VSMCs were fixed with methanol, stained with DAPI and counted under a fluorescent microscope.
FIGS. 20A-20D. Representative image of nine independent experiments. (A) Vehicle Control. (B) PDGF-BB, 50 ng/ml. (C) 7S-Maresin-1, 1 nm+PDGF-BB, 50 ng/ml. (D) 7S-Maresin-1, 100 nm+PDGF-BB, 50 ng/ml. (E) Graphical summary of nine independent experiments. P≤0.01, One-way ANOVA with Dunnett's post hoc test. *P<0.05 compared to […] (50 ng/ml). […]

IKKα/β subunit [4] = assay: TNFα induced phosphorylation of IKKα/β in sv-VSMCs, western blot; format: cell-based, human; conditions: 100 nm, 30 min; TNFα 10 ng/ml 15 min
Protocol: as §1, §2, §3, §4

CC/C=C\C/C=C\C[C@H](O)\C=C/C=C/C=C/[C@@H](O)C/C=C\CCC(=O)O [7S-Maresin-1, 7S,14R-dihydroxydocosa-4Z,8E,10Z,12Z,16Z,19Z-hexaenoic acid]
PDGF-BB induced vascular smooth muscle cell shape change (human sv-VSMCs [1]): Alters
levels of multiple inflammatory mediators in conditioned medium from EC (inflammatory mediators): reduced
TNFα induced phosphorylation of IKKα/β subunit in human sv-ECs (IKKα/β subunit [2]): Reduce
PDGF-BB induced migration in human sv-VSMCs (human sv-VSMCs [3]): Dose-Dependently Attenuates
TNFα induced phosphorylation of IKKα/β subunit in human sv-VSMCs (IKKα/β subunit [4]): Reduce
